Assay results from patent publication US20200170990A1, “METHOD FOR TREATING SCHNITZLER'S SYNDROME” (OLATEC THERAPEUTICS LLC, priority 2017, published 2020).

Key:
[1] = tested on: IL-1β release from human monocytes-derived macrophages; assay: Suppression of IL-1β release from human monocytes-derived macrophages (LPS priming, nigericin release, ELISA); format: cell-based
Method: Peripheral blood mononuclear cells (PBMCs) were isolated from blood of 11 healthy human donors and differenciates in macrophages using GM-CSF (5 ng/ml) for 5 days. They were stimulated with 1 μg/mL with lipopolysaccharide (LPS, priming phase) at time zero. At 30 minutes, they were incubated with different concentrations of dapansutrile (OLT1177®) from 0.001-50 μM. At 4 hours, 10 μM of nigericin (NIG, release phase) was added. At the end of an 5 hour incubation period, the supernatant was harvested and assayed for IL-1β using respective ELISA kits following manafacturer's protocols.

[2] = tested on: caspase-1 (p10) in J774A.1 cells; assay: Western blot for caspase-1 (p45 and p10) in J774A.1 cells after LPS/ATP stimulation; format: cell-based, mouse
Method: (§1) J774A.1 murine macrophages cells were stimulated with 1 μg/ml lipopolysaccharide (LPS) for 4 hours and either nigericin (NIG, 10 μM) or ATP (5 mM) was added for 1 hour. Dapansutrile OLT1177® was added to the cells either 30 minutes following LPS stimulation or at the same time as ATP.
A subunit of activated caspase-1 (p10) was reduced in J774A.1 cells in the presence of dapansutrile.

[3] = tested on: zymosan-induced knee joint swelling in mice; assay: Zymosan-induced knee arthritis in mice: macroscopic joint swelling; format: in vivo; details: 600 mg/kg oral gavage, zymosan 180 μg intra-articular, 24 hours, vs vehicle-treated mice
Method: Zymosan injected directly into the knee joint of mice elicits an inflammatory response and is used as a model of arthritis (Verschure et al, Ann. Rheum Dis. 53:455-460, 1994). Endpoints measured in this model include knee joint swelling score, cytokine levels in the synovial tissue and microscopic pathology of the knee.
(§2) Arthritis was induced in mice by intra-articular injection of zymosan (180 μg) into the knee joint (at time zero) of both knees in each mouse. Mice were treated by oral gavage with vehicle (water, n=5) or dapansutrile in vehicle (600 mg/kg, n=4) at times −25 hr, −13 hr, and −1 hr. After zymosan injection at time zero, mice were further treated with vehicle or dapansutrile (600 mg/kg) at times +11 hr and +23 hr. Mice were sacrificed 24 hours following the Zymosan intraarticulr idministration.
Macroscopic joint swelling was assessed on all knees after the skin is removed using a scoring system ranging from 0 to 3, with 0 being no swelling and 3 being severe swelling.

[4] = tested on: caspase-1 activity in J774A.1 cells; assay: Caspase-1 activity in J774A.1 cell lysates after LPS and nigericin stimulation; format: cell-based, mouse; details: 50 μM, LPS/NIG set at 100%, n=3, p<0.05
Method: as §1
Caspase-1 activity is expressed as percent change of the mean value of each assay (n=3) with LPS/NIG set at 100%. Caspase-1 (Cas-1) activity was reduced by 35% (p<0.05) in an enzymatic assay of cell lysate from stimulated cells in the presence of dapansutrile, comparing with control.

[5] = tested on: mouse IL-1β in synovial membrane; assay: Zymosan-induced knee arthritis in mice: IL-1β in synovial membrane (ELISA); format: in vivo; details: 600 mg/kg oral gavage, 24 hours, vs untreated mice
Method: as §2
In addition, synovial membrane was taken from one knee per mouse and the cells were lysed for measurement of mouse IL-1β, using an ELISA kit from R&D Systems, Inc., following manufacturer's protocols. The results are shown as mean±standard error of mean and statistical evaluation is performed.

[6] = in vivo; cited from earlier work

Compound	Release of IL-1β from stimulated monocytes-derived macrophages ([1]; LPS priming, nigericin release, compared to control)	Concentration at which maximum suppression effect on IL-1β release was observed ([1]; human monocytes-derived macrophages, LPS 1 μg/mL + nigericin 10 μM, tested 0.001-50 μM) [µM]	Subunit of activated caspase-1 (p10), Western blot [2]	Macroscopic joint swelling (score 0 to 3) [3]	Reduction of caspase-1 activity [4] [%]	Level of IL-1β in synovial membrane [5]	Half-life [6] [days]
CS(=O)(=O)CCC#N [dapansutrile, 3-methanesulfonylpropionitrile]	suppresses the release of IL-1β	1	reduced	significant reduction in the joint swelling	35	significantly reduced	
Canakinumab: fully human selective monoclonal anti-IL-1β antibody							28
